Test results reported in ChEMBL document CHEMBL1201862, “PubChem BioAssay data set” (2004).
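Tested at 5 concentrations; 48 h exposure; 96-well plates; endpoints linearly interpolated, else capped at highest concentration. Here, GI50 denotes the concentration required for 50% inhibition of growth.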 Active and inactive are the calls of the source. Cut-off read from the data, not from the text of the source: active = GI50 up to about 1.1 µM and inactive = higher. Non-standard residues stand in square brackets, D forms with d. Residues, ends and D or L forms follow the SMILES beside them. β3hI = CC[CH](C)[CH](N)CC(=O)O

Key:
Test in all cases: NCI-60 cell line screen, 48 h
LOX IMVI = system: LOX IMVI
U-251 = system: U-251
HCT-116 = system: HCT-116
RPMI-8226 = system: RPMI-8226
SF-295 = system: SF-295
UACC-62 = system: UACC-62
OVCAR-4 = system: OVCAR-4
MDA-MB-435 = system: MDA-MB-435
SW-620 = system: SW-620
SN12C = system: SN12C
MOLT-4 = system: MOLT-4
PC-3 = system: PC-3
OVCAR-3 = system: OVCAR-3
TK-10 = system: TK-10
MCF7 = system: MCF7
RXF 393 = system: RXF 393
SR = system: SR
NCI-H460 = system: NCI-H460
SF-539 = system: SF-539
HCC 2998 = system: HCC 2998

| Compound | GI50 (LOX IMVI) | GI50 (U-251) | GI50 (HCT-116) | GI50 (RPMI-8226) | GI50 (SF-295) | GI50 (UACC-62) | GI50 (OVCAR-4) | GI50 (MDA-MB-435) | GI50 (SW-620) | GI50 (SN12C) | GI50 (MOLT-4) | GI50 (PC-3) | GI50 (OVCAR-3) | GI50 (TK-10) | GI50 (MCF7) | GI50 (RXF 393) | GI50 (SR) | GI50 (NCI-H460) | GI50 (SF-539) | GI50 (HCC 2998) |
| --- | --- | --- | --- | --- | --- | --- | --- | --- | --- | --- | --- | --- | --- | --- | --- | --- | --- | --- | --- | --- |
| Oc1c(Br)cc(Br)cc1CN(Cc1cc(Br)cc(Br)c1O)C1CCCCC1 | 31.9 µM (inactive) | 24.9 µM (inactive) | 33.4 µM (inactive) | 30.2 µM (inactive) | 21.2 µM (inactive) | 31.3 µM (inactive) | 46.9 µM (inactive) | 31.3 µM (inactive) | 29.7 µM (inactive) | 33.2 µM (inactive) | 43.4 µM (inactive) | 21.1 µM (inactive) | 15.1 µM (inactive) | 26.4 µM (inactive) | 25.5 µM (inactive) | 31.3 µM (inactive) | 32.4 µM (inactive) |  |  |  |
| O=C(O)c1cc(-c2ccc(-c3ccccc3)cc2)nc2cc3ccccc3cc12 | 66.7 µM (inactive) | 20.7 µM (inactive) | 31.3 µM (inactive) | 29.6 µM (inactive) | 34.8 µM (inactive) | 25.5 µM (inactive) | 29.4 µM (inactive) | 72.9 µM (inactive) | 40.4 µM (inactive) | 61.9 µM (inactive) | 11.6 µM (inactive) | 17.5 µM (inactive) | 47.9 µM (inactive) | 58.2 µM (inactive) | > 100 µM (inactive) | 27.7 µM (inactive) | 5.43 µM (inactive) | 6.35 µM (inactive) | 31.2 µM (inactive) |  |
| CCCSc1ccc2[nH]c(/N=C/c3ccco3)cc2c1 | 37.7 µM (inactive) |  | 35.4 µM (inactive) | 0.184 µM (active) | > 100 µM (inactive) | 52.8 µM (inactive) | 39.4 µM (inactive) | 17.8 µM (inactive) | 40.2 µM (inactive) | 29.9 µM (inactive) |  | 43.7 µM (inactive) | 29.8 µM (inactive) |  | 6.34 µM (inactive) | 22.3 µM (inactive) | 1.68 µM (inactive) |  | 12.4 µM (inactive) |  |
| CC(C)=CCC[C@@H](C)C1=C(O)C(O)C(C)=C2N=C(c3ccccc3)C(=O)OC21 (some centres undefined) | 4.71 µM (inactive) | 1.57 µM (inactive) | 4.03 µM (inactive) |  | 2.42 µM (inactive) | 1.07 µM (active) | 4.41 µM (inactive) | 3.18 µM (inactive) | 3.16 µM (inactive) | 1.43 µM (inactive) | > 7.41 µM (inactive) | 8.36 µM (inactive) | 1.24 µM (inactive) | 1.9 µM (inactive) | 1.21 µM (inactive) | 1.35 µM (inactive) | > 9.84 µM (inactive) | 1.19 µM (inactive) | 4.33 µM (inactive) | 6.62 µM (inactive) |
| COc1nc2ccc(CNc3ccc(C(=O)O)cc3)cc2nc1OC | > 10 µM (inactive) | > 10 µM (inactive) | > 10 µM (inactive) | > 10 µM (inactive) | > 10 µM (inactive) | > 10 µM (inactive) | > 10 µM (inactive) | > 10 µM (inactive) | > 10 µM (inactive) | > 10 µM (inactive) | > 10 µM (inactive) | > 10 µM (inactive) | > 10 µM (inactive) | > 10 µM (inactive) | > 10 µM (inactive) | > 10 µM (inactive) |  | > 10 µM (inactive) | > 10 µM (inactive) | > 10 µM (inactive) |
| COc1cc(C2SCC(=O)N2c2ccccn2)cc(OC)c1OC (centres undefined) | > 100 µM (inactive) | > 100 µM (inactive) | 79.6 µM (inactive) | 91 µM (inactive) | 81.1 µM (inactive) | 87.5 µM (inactive) | > 100 µM (inactive) | 27 µM (inactive) | 76 µM (inactive) | > 100 µM (inactive) | > 100 µM (inactive) | > 100 µM (inactive) | > 100 µM (inactive) | > 100 µM (inactive) | 49.2 µM (inactive) |  | 31.6 µM (inactive) | > 100 µM (inactive) | 65 µM (inactive) | > 100 µM (inactive) |
| COc1ccc(/C=C2\CCC(CNc3ccc(S(N)(=O)=O)cc3)C2=O)cc1 (centres undefined) | 9.89 µM (inactive) | 19.9 µM (inactive) | 8.65 µM (inactive) |  | > 67.3 µM (inactive) | 24.5 µM (inactive) | 31.6 µM (inactive) | 18.3 µM (inactive) | 1.95 µM (inactive) | 18.6 µM (inactive) | 7.69 µM (inactive) | 21.9 µM (inactive) | 9.04 µM (inactive) | 14.3 µM (inactive) | 1.74 µM (inactive) | 20.4 µM (inactive) | 1.9 µM (inactive) | 31.3 µM (inactive) | 25.7 µM (inactive) | 33.3 µM (inactive) |
| CCOC(=O)C(NC(=O)Nc1ccccc1)(Nc1cccc(Cl)c1)C(F)(F)F (centres undefined) | > 100 µM (inactive) | > 100 µM (inactive) | > 100 µM (inactive) | > 100 µM (inactive) |  | > 100 µM (inactive) |  | > 100 µM (inactive) | > 100 µM (inactive) | > 100 µM (inactive) | 98.9 µM (inactive) | > 100 µM (inactive) | > 100 µM (inactive) | > 100 µM (inactive) | > 100 µM (inactive) | 20.7 µM (inactive) | > 100 µM (inactive) | > 100 µM (inactive) | > 100 µM (inactive) | > 100 µM (inactive) |
| CCOC(=O)c1nc[nH]c1/N=N/N(C)N | 92.5 µM (inactive) | 65 µM (inactive) | > 100 µM (inactive) | 46.6 µM (inactive) | 91.2 µM (inactive) | > 100 µM (inactive) | > 100 µM (inactive) | > 100 µM (inactive) | > 100 µM (inactive) | > 100 µM (inactive) | 44.2 µM (inactive) | > 100 µM (inactive) | > 100 µM (inactive) | > 100 µM (inactive) | 98.4 µM (inactive) | > 100 µM (inactive) |  | 25.3 µM (inactive) | > 100 µM (inactive) | > 100 µM (inactive) |
| CC(C)(C)OC(=O)N1CCCC1C(=O)NCCNc1ccc(NCCNC(=O)C2CCCN2C(=O)OC(C)(C)C)c2c1C(=O)c1ccccc1C2=O (centres undefined) | 12.4 µM (inactive) | 18.8 µM (inactive) | 13.2 µM (inactive) | < 0.01 µM (active) | 18 µM (inactive) | 11.6 µM (inactive) | 15 µM (inactive) | 14.1 µM (inactive) | 13.8 µM (inactive) |  | 9.86 µM (inactive) | 11.1 µM (inactive) | 14.1 µM (inactive) | 19.1 µM (inactive) | 16.2 µM (inactive) |  | 14.3 µM (inactive) |  | 16.1 µM (inactive) | 13 µM (inactive) |
| COc1ccc2c(cnc3c4cc(OC)c(OC)cc4ccc23)c1 | > 100 µM (inactive) | > 100 µM (inactive) | > 100 µM (inactive) |  | > 100 µM (inactive) | > 100 µM (inactive) | > 100 µM (inactive) | > 100 µM (inactive) | > 100 µM (inactive) | > 100 µM (inactive) | > 100 µM (inactive) | > 100 µM (inactive) | > 100 µM (inactive) | > 100 µM (inactive) | > 100 µM (inactive) | > 100 µM (inactive) | > 100 µM (inactive) | > 100 µM (inactive) | > 100 µM (inactive) | > 100 µM (inactive) |
| COc1ccc(CCN2CCN(CCCc3ccccc3)CC2)cc1 | > 100 µM (inactive) | > 100 µM (inactive) | > 100 µM (inactive) | > 100 µM (inactive) | > 100 µM (inactive) | > 100 µM (inactive) | 71.6 µM (inactive) | > 100 µM (inactive) | > 100 µM (inactive) | > 100 µM (inactive) | 92 µM (inactive) | > 100 µM (inactive) | 80 µM (inactive) | 64.4 µM (inactive) | > 100 µM (inactive) |  | 47.8 µM (inactive) | 84.5 µM (inactive) | > 100 µM (inactive) | 69.3 µM (inactive) |
| CC(NC(=O)C(Cc1ccc(OC(=O)c2ccccc2)cc1)NC(=O)OC(C)(C)C)C(=O)NCC(=O)NC(Cc1ccccc1)C(=O)NN (centres undefined) | 18.1 µM (inactive) | 51.5 µM (inactive) | 43.1 µM (inactive) | 15.8 µM (inactive) | 46.9 µM (inactive) | 40.6 µM (inactive) | 96.8 µM (inactive) | 39 µM (inactive) | 29.3 µM (inactive) | > 10 µM (inactive) | 17.9 µM (inactive) | 24.2 µM (inactive) | 57.9 µM (inactive) | 70.3 µM (inactive) | 40.9 µM (inactive) | 34.8 µM (inactive) | 13.6 µM (inactive) | 49.2 µM (inactive) | > 100 µM (inactive) |  |
| COc1ccc(-c2nc(N)c3ncn(C4OC(CO)C(O)C4O)c3n2)cc1 (centres undefined) | > 100 µM (inactive) | > 100 µM (inactive) | > 100 µM (inactive) | > 100 µM (inactive) | > 100 µM (inactive) | > 100 µM (inactive) | > 100 µM (inactive) | > 100 µM (inactive) | > 100 µM (inactive) | > 100 µM (inactive) | 70.6 µM (inactive) | > 100 µM (inactive) | > 100 µM (inactive) | > 100 µM (inactive) | > 100 µM (inactive) | > 100 µM (inactive) | > 100 µM (inactive) | > 100 µM (inactive) | > 100 µM (inactive) |  |
| CCC(C)C(CC(=O)N1CCCC1C(=O)NC(C(=O)NC(C(=O)NCC(=O)NC(CC(N)=O)C(=O)NC(C(=O)NC(C(=O)NC(CCCCN)C(N)=O)C(C)CC)C(C)CC)C(C)C)C(C)CC)NC(=O)C(N)C(C)CC (stereo not drawn) (H-I[β3hI]PIVGNIIK-NH2; configuration not given here) | > 50 µM (inactive) | > 50 µM (inactive) | > 50 µM (inactive) | > 50 µM (inactive) | > 50 µM (inactive) | > 50 µM (inactive) | > 50 µM (inactive) | > 50 µM (inactive) | > 50 µM (inactive) | > 50 µM (inactive) | > 50 µM (inactive) | > 50 µM (inactive) | > 50 µM (inactive) | > 50 µM (inactive) | > 50 µM (inactive) |  | > 50 µM (inactive) |  | > 50 µM (inactive) |  |
